Reference: ChEMBL document CHEMBL4732091, “Design, synthesis and biological evaluation of novel thiosemicarbazone-indole derivatives targeting prostate cancer cells” (Eur J Med Chem, 2021)
Calls of active or inactive are those of the source. The calls are words filed in the database; no cut-off is given here.

Experiments:
[1] = system: ECa-109 cell line; test: Antiproliferative activity against human ECa-109 cell line cells assessed as inhibition of cell proliferation measured after 72 hrs by MTT assay; format: functional, cell-based; conditions: ECa-109, 72 h
[2] = system: DU-145; test: Antiproliferative activity against human DU-145 cell line cells assessed as inhibition of cell proliferation measured after 72 hrs by MTT assay; format: functional, cell-based; conditions: DU-145, 72 h
[3] = system: MCF7; test: Antiproliferative activity against human MCF7 cell line cells assessed as inhibition of cell proliferation measured after 72 hrs by MTT assay; format: functional, cell-based; conditions: MCF7, 72 h
[4] = system: PC-3; test: Antiproliferative activity against human PC-3 cells assessed as reduction in colony formation at 12.5 to 50 nM measured after 6 days by crystal violet staining based colony assay; format: functional, cell-based; conditions: dose 12.5-50 nM, time 6.0 day
[5] = system: DU-145; test: Antiproliferative activity against human DU-145 cells assessed as reduction in colony formation at 0.25 to 1 uM measured after 6 days by crystal violet staining based colony assay; format: functional, cell-based; conditions: dose 0.25-1 µM, time 6.0 day
[6] = system: PC-3; test: Cell cycle arrest in human PC-3 cells assessed as accumulation of cells in G1/S phase by measuring upregulation of p27 measured after 48 hrs by Western blot assay; format: functional, cell-based; conditions: dose 125-500 nM
[7] = system: DU-145; test: Induction of apoptosis in human DU-145 cells assessed as cell rounding at 0.5 to 2 uM measured after 72 hrs by Hoechst staining based fluorescence method; format: functional; conditions: dose 0.5-2 µM
[8] = system: PC-3; test: Induction of apoptosis in human PC-3 cells assessed as late apoptotic cells at 25 nM measured after 72 hrs by Annexin V-FITC/propidium iodide staining based flow cytometry method (reference value: 1.01 %); format: functional
[9] = system: PC-3; test: Induction of apoptosis in human PC-3 cells assessed as necrotic cells at 25 nM measured after 72 hrs by Annexin V-FITC/propidium iodide staining based flow cytometry method (reference value: 1.2 %); format: functional
[10] = system: PC-3; test: Induction of apoptosis in human PC-3 cells assessed as viable cells at 100 nM measured after 72 hrs by Annexin V-FITC/propidium iodide staining based flow cytometry method (reference value: 97.2 %); format: functional; conditions: read-out: Activity
[11] = system: PC-3; test: Induction of apoptosis in human PC-3 cells assessed as necrotic cells at 100 nM measured after 72 hrs by Annexin V-FITC/propidium iodide staining based flow cytometry method (reference value: 1.2 %); format: functional
[12] = system: DU-145; test: Induction of apoptosis in human DU-145 cells assessed as viable cells at 0.5 uM measured after 72 hrs by Annexin V-FITC/propidium iodide staining based flow cytometry method (reference value: 96.3 %); format: functional; conditions: read-out: Activity
[13] = system: DU-145; test: Induction of apoptosis in human DU-145 cells assessed as early apoptotic cells at 0.5 uM measured after 72 hrs by Annexin V-FITC/propidium iodide staining based flow cytometry method (reference value: 0.835 %); format: functional
[14] = system: DU-145; test: Induction of apoptosis in human DU-145 cells assessed as viable cells at 1 uM measured after 72 hrs by Annexin V-FITC/propidium iodide staining based flow cytometry method (reference value: 96.3 %); format: functional; conditions: read-out: Activity
[15] = system: DU-145; test: Induction of apoptosis in human DU-145 cells assessed as late apoptotic cells at 1 uM measured after 72 hrs by Annexin V-FITC/propidium iodide staining based flow cytometry method (reference value: 1.77 %); format: functional
[16] = system: DU-145; test: Induction of apoptosis in human DU-145 cells assessed as necrotic cells at 2 uM measured after 72 hrs by Annexin V-FITC/propidium iodide staining based flow cytometry method (reference value: 1.13 %); format: functional
[17] = system: PC-3; test: Induction of apoptosis in human PC-3 cells assessed as reduction in Bcl-2 expression at 25 to 100 nM measured by Western blot assay; format: functional, cell-based; conditions: dose 25-100 nM
[18] = system: PC-3; test: Induction of apoptosis in human PC-3 cells assessed as increase in Bax expression at 25 to 100 nM measured by Western blot assay; format: functional, cell-based; conditions: dose 25-100 nM
[19] = system: PC-3; test: Induction of apoptosis in human PC-3 cells assessed as increased cleaved caspase 9/3 expression at 25 to 100 nM measured by Western blot assay; format: functional, cell-based; conditions: dose 25-100 nM
[20] = system: PC-3; test: Induction of apoptosis in human PC-3 cells assessed as increase in PARP expression at 25 to 100 nM measured by Western blot assay; format: functional, cell-based; conditions: dose 25-100 nM
[21] = system: DU-145; test: Induction of apoptosis in human DU-145 cells assessed as reduction in Bcl-2 expression at 0.5 to 2 uM measured by Western blot assay; format: functional, cell-based; conditions: dose 0.5-2 µM
[22] = system: DU-145; test: Induction of apoptosis in human DU-145 cells assessed as increase in PARP at 0.5 to 2 uM measured by Western blot assay; format: functional, cell-based; conditions: dose 0.5-2 µM
[23] = system: PC-3; test: Induction of apoptosis in human PC-3 cells assessed as increase in p53 expression at 25 to 100 nM measured by Western blot assay; format: functional, cell-based; conditions: dose 25-100 nM
[24] = system: PC-3; test: Induction of ROS generation in human PC-3 cells assessed as increase in intracellular ROS level measured after 48 hrs by DCFH-DA staining based flowcytometry method; format: functional, cell-based; conditions: dose 25-100 nM
[25] = system: DU-145; test: Induction of ROS generation in human DU-145 cells assessed as increase in intracellular ROS level measured after 48 hrs by DCFH-DA staining based flowcytometry method; format: functional, cell-based; conditions: dose 0.5-2 µM
[26] = system: DU-145; test: Activation of MAPK signaling in human DU-145 cells assessed as increase in phosphorylated JNK (Thr 183/Tyr 185) at 125 to 500 nM measured by Western blot assay; format: cell-based; conditions: filed as activator, dose 125-500 nM
[27] = system: DU-145; test: Activation of MAPK signaling in human DU-145 cells assessed as increase in phosphorylated p38 (Thr 180/Tyr 182) at 125 to 500 nM measured by Western blot assay; format: cell-based; conditions: filed as activator, dose 125-500 nM
[28] = system: PC-3; test: Cytotoxicity against human PC-3 cells assessed as cell viability pre-treated with SB203580 for 4 hrs followed by compound treatment and measured after 72 hrs by MTT assay; format: functional, cell-based
[29] = Toxicity in C57BL/6 mouse assessed as change in body weight at 2 mg/kg, IG measured after 2 weeks; format: organism-based; conditions: in vivo, po, 336 h
[30] = Toxicity in C57BL/6 mouse assessed as effect on liver at 2 mg/kg, IG measured after 2 weeks by hematoxylin and eosin staining based imaging analysis; format: organism-based; conditions: in vivo, po, 336 h
[31] = Toxicity in C57BL/6 mouse assessed as effect on lung at 2 mg/kg, IG measured after 2 weeks by hematoxylin and eosin staining based imaging analysis; format: organism-based; conditions: in vivo, po, 336 h
[32] = Toxicity in BALB/c-NU mouse assessed as changes in body weight at 12.5 to 25 mg/kg, IG qd for 21 days measured every 2 days; format: organism-based; conditions: in vivo, po, 504 h, dose 12.5-25 mg/kg, time 21 day
[33] = system: PC-3; test: Antiproliferative activity against human PC-3 cells assessed as inhibition of cell proliferation at 0.156 to 20 uM by MTT assay; format: functional, cell-based; conditions: dose 0.156-20 µM, time 24-72 hrs, TDE = time-dependent effect
[34] = system: DU-145; test: Induction of apoptosis in human DU-145 cells assessed as formation of apoptotic bodies at 0.5 to 2 uM measured after 72 hrs by Hoechst staining based fluorescence method; format: functional, cell-based; conditions: dose 0.5-2 µM
[35] = system: PC-3; test: Induction of ROS generation in human PC-3 cells assessed as intracellular ROS level at 250 nM measured after 48 hrs by DCFH-DA staining based flowcytometry method (reference value: 55.2 %); format: functional

Compound: Cc1ccc(/C=N/NC(=S)Nc2ccc(C(=O)NCCc3c(C)[nH]c4ccccc34)cc2)nc1
- IC50 [1]: 4.94 µM
- IC50 [2]: 1.44 µM
- IC50 [3]: 5.33 µM
- inhibition [4]: Active
- inhibition [5]: Active
- Activity [6]: Active
- Activity [7]: Active
- Activity [8]: 4.36%
- Activity [9]: 2.06%
- viability at 0.1 µM [10]: 35.9%
- Activity [11]: 9.14%
- viability at 0.5 µM [12]: 90.2%
- Activity [13]: 0.41%
- viability at 1 µM [14]: 62.1%
- Activity [15]: 22.5%
- Activity [16]: 7.23%
- Activity [17]: Active
- Activity [18]: Active
- Activity [19]: Active
- Activity [20]: Active
- Activity [21]: Active
- Activity [22]: Active
- Activity [23]: Active
- Activity [24]: Dose-dependent effect
- Activity [25]: Dose-dependent effect
- Activity [26]: Active
- Activity [27]: Active
- inhibition [28]: inactive
- Activity [29]: Non-Toxic
- Activity [30]: Non-Toxic
- Activity [31]: Non-Toxic
- Activity [32]: Non-Toxic
- Activity [33]: Tde
- Activity [34]: Active
- Activity [35]: 87%
